Assay in all cases: NCI anticancer screen, dose series, 48 h
The test system of assay [1] is MDA-N.
Assay [2] concerns MALME-3M melanoma.
The subject of assay [3] is HCC-2998 colon.
In assay [4] the test system is MCF7 breast.
Assay [5] concerns A549 NSCLC.
Assay [6] concerns T-47D breast.
For assay [7], the system named is IGROV1 ovarian.
Assay [8] concerns SF-268 CNS.
Assay [9] deals with CAKI-1 renal.
Assay [10] concerns HT29 colon.
Assay [11] concerns SK-MEL-28 melanoma.
Assay [12] concerns K-562 leukemia.
For assay [13], the system named is TK-10 renal.
The subject of assay [14] is UACC-257 melanoma.
Assay [15] has as its system NCI/ADR-RES ovarian.
Assay [16] deals with MOLT-4 leukemia.
Assay [17] relates to SW-620 colon.
The test system of assay [18] is RPMI-8226 leukemia.
In assay [19] the test system is SF-539 CNS.

Structures are written as SMILES.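 Assay format: 96-well plates, 48-hour exposure. At the TGI there is no net growth.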 Bounds are passed on as bounds.

`NS(=O)(=O)c1ccc(N=Nc2ccc(O)c(C(=O)O)c2)cc1`: the TGI in assay [1], in assay [2], in assay [3], in assay [4], in assay [5] and in assay [6] was above 100 µM in each case. The TGI in [7], in assay [8], in assay [9], in assay [10], in assay [11] and in [12] was above 100 µM throughout. In addition, the TGI in assay [13], in assay [14], in assay [15], in [16], in assay [17] and in [18] was above 100 µM throughout.
As for `FC(F)(F)c1ccc2nc(Sc3ccc4ccccc4c3)cnc2c1`, the TGI is above 100 µM in [1]; above 100 µM in [2]; above 100 µM in [3]; 95 µM in [4]; above 100 µM in [5]; above 100 µM in assay [6]. The TGI in assay [7], in [8], in [9], in assay [10], in assay [11] and in assay [12] was above 100 µM in each case. Moreover, the TGI in assay [13], in [14], in [15], in assay [16], in assay [19] and in assay [17] was above 100 µM each time.
For the compound `CCOC(=O)C(C(=O)COC(C)(C)C)[C@@H]1C=C[C@H](OC(C)=O)C1` (stereo partly drawn), the TGI in [1], in [2], in assay [3], in assay [4], in assay [5] and in [6] was above 100 µM throughout. Besides, the TGI in [8], in assay [9], in [10], in assay [11], in assay [12] and in [14] was above 100 µM in each case. Also, the TGI in [15], in [16], in assay [19], in assay [17] and in [18] was above 100 µM each time.
In the case of `O=c1[nH]c2ccc([N+](=O)[O-])cc2nc1/C=C(\O)c1ccccc1`, the TGI in [1], in assay [2], in [3], in assay [4], in [5] and in [6] was above 100 µM throughout. The TGI in assay [7] is above 100 µM; in [8], 58.3 µM; in [9], 62 µM; in [10] it was above 100 µM; in assay [12], above 100 µM; in assay [13] it was 14.8 µM. For the same compound, the TGI in assay [14] was above 100 µM; in [15], 81.5 µM; in [16] it was above 100 µM; in [19] it was 69.8 µM.
Take `O=C1C=C(N2CCN(CCOCCO)CC2)C(=O)c2c(O)ccc(O)c21`: the TGI in [1] is 3.29 µM; in [2], 2.91 µM; in assay [3] it was 6.95 µM; in assay [4], 2.98 µM; in [5], 11.4 µM; in assay [6], 18.4 µM. The TGI was 9.9 µM in [7]; 37.1 µM in assay [8]; 29.3 µM in [9]; 15.5 µM in assay [10]; 32.7 µM in assay [11]; above 44.6 µM in [12]. Moreover, the TGI in assay [13] is 22.7 µM; in assay [14], 3.11 µM; in assay [15] it was 10.4 µM; in [19], 25.6 µM; in assay [17], 6.48 µM; in assay [18], above 100 µM.
Consider `C=C1CC2[C@H](C)C(=O)CCC2(C)C2=C1C1CCC(C(C)CCC(=C)C(C)C(=O)O)C1(C)CC2=O` (stereo partly drawn), for which the TGI in [1], in assay [2], in assay [3], in [4], in assay [5] and in [6] was above 100 µM each time. Moreover, the TGI in assay [7] is above 100 µM; in assay [8], above 100 µM; in [9], above 100 µM; in assay [10] it was above 100 µM; in [11] it was above 100 µM; in assay [12], 28.7 µM. Besides, the TGI in [13] is above 100 µM; in assay [14] it was 96 µM; in assay [15], above 100 µM; in [16] it was 63.1 µM; in assay [19] it was above 100 µM; in assay [17] it was above 100 µM.
With `O=C(Nc1ccc2ccccc2c1)c1cc2cc(CCl)ccc2oc1=O`, the TGI in assay [1], in assay [2], in assay [3], in assay [4], in assay [5] and in assay [6] was above 100 µM throughout. In addition, the TGI in assay [7] was above 100 µM; in assay [8], 73.5 µM; in assay [9], above 100 µM; in assay [10], above 100 µM; in [11], above 100 µM; in assay [12] it was above 100 µM. Besides, the TGI in assay [13], in [14], in assay [15], in assay [16], in [17] and in [18] was above 100 µM in each case.

The values above are taken from PubChem BioAssay (NCI).
